Reference: patent US20060009465A1, “Treatment of sleep disorders using sleep target modulators” (priority 2002, published 2006)
Entries after “also recorded” stand apart in the source; their conditions may differ.

Test system: Male Wistar rats
Test: SCORE-2000 sleep-wake assay (EEG/EMG, locomotor activity, body temperature)
[1] = Example 2, 10 mg/kg IP at CT-18
[2] = Example 3, male Wistar rats, 30 mg/kg
[3] = Example 2, 3 mg/kg and 10 mg/kg IP at CT-5

Cl.O=C(O)C1CN(CCCn2nc3ccccn3c2=O)CCN1c1cccc(Cl)c1 (centres unmarked) [HY-2724]
increasing sleep and sleep consolidation (Example 4, male Wistar rats, 30 mg/kg): ineffective

O=c1n(CCCN2CCN(c3cccc(Cl)c3)CC2)nc2ccccn12 [Trazodone]
REM Sleep Inhibition [1]: without evidence | adverse thermoregulatory events post-treatment [1]: no evidence | disproportional motor inhibition / locomotor activity changes [1]: without evidence; also recorded: no evidence | nonREM sleep time [1]: increased nonREM sleep time; also recorded: markedly and significantly increased | rebound insomnia [1]: without evidence; also recorded: no evidence | Body Temp (CV) Adverse Event [2]: Yes | Disproportional Motor Inhibition [2]: None | Initial Sleep Interference [2]: initially interferes with sleep; also recorded: significant initial sleep interference | REM Sleep Inhibition [2]: inhibits REM sleep; also recorded: significant REM sleep inhibition | rebound insomnia [2]: None

Clc1cccc(N2CCNCC2)c1 [m-CPP, meta-chlorophenylpiperazine]
interference with sleep, time post-treatment [3]: 2 to 3 h | rebound hypersomnolence [3]: followed by a rebound hypersomnolence | reduction in nonREM sleep time, lasting post-treatment [3]: 2 to 3 h
